In brackets after ≈: the same amount, converted by molar mass.
Experiments:
physchem = details: oil or lipid
Protocol: (§1) One milliliter of Lipiodol (Lipiodol Ultra-fluid, Laboratoire Guerbet, France, Iodine content 38% by weight) was used as an oily contrast medium. Lipiodol and 2, 4, 6, 8, 10 or 11 mg of paclitaxel (Samyang Genex, Korea) were added in test tubes (micro test tubes with safety lock, polyethylene, 1.5 ml, Eppendorf AG, Germany) and solubilized by stirring at room temperature. To speed up the solubilization process, it is acceptable to raise the temperature to 35˜45° C. or to sonicate in a bath type sonicator.
(§2) One milliliter of Lipiodol (Lipiodol Ultra-fluid, Laboratoire Guerbet, France, Iodine content 38% by weight) and 10 mg of paclitaxel (Samyang Genex, Korea) were added in test tubes and solubilized by stirring at room temperature. To speed up the solubilization process, the temperature of the mixture was raised to 40° C.
(§3) A mixture of 1 ml of Lipiodol (Lipiodol Ultra-fluid, Laboratoire Guerbet, France, Iodine content 38% by weight) and 0.01 ml of tricaprylin (Sigma Chemical Co.) and 12 mg of paclitaxel (Samyang Genex, Korea) were added in a test tube and solubilized by stirring at room temperature. To speed up the solubilization process, the composition was sonicated in a bath type sonicator.

[1] = Solubilization / solubility of paclitaxel in oily contrast medium
Protocol: as §1, §2, §3

solubility (physchem; Lipiodol (oily contrast medium), 26 °C, thermodynamic from solid): ~10 mg/mL (≈ 11.7 mM)
solubility (physchem): ≤ 13 mg/mL
solubility of paclitaxel in mixed oil system of lipiodol/tricaprylin compared with lipiodol alone [1]: higher
SMILES: CC(=O)O[C@H]1C(=O)[C@@]2(C)[C@H]([C@H](OC(=O)c3ccccc3)[C@]3(O)C[C@H](OC(=O)[C@H](O)[C@@H](NC(=O)c4ccccc4)c4ccccc4)C(C)=C1C3(C)C)[C@]1(OC(C)=O)CO[C@@H]1C[C@@H]2O [paclitaxel]
